The results in this text go back to article PMC7360862, “Sub-Acute Treatment of Curcumin Derivative J147 Ameliorates Depression-Like Behavior Through 5-HT1A-Mediated cAMP Signaling” (Frontiers in Neuroscience, 2020).

Assay [1] deals with T1, 5-HT1B receptor (Mus musculus, UniProt P28334).
T1 construct: gene Htr1b; native receptor in mouse frontal cortex membranes
The experiment in a line: competitive radioligand binding, mouse frontal cortex membranes, reference antagonist measured in the same laboratory.

For assay [2], the target named is T2, 5-HT1A receptor (Mus musculus, UniProt Q64264).
T2 construct: gene Htr1a; native receptor in mouse frontal cortex membranes
T2 sequence (Q64264 1-421): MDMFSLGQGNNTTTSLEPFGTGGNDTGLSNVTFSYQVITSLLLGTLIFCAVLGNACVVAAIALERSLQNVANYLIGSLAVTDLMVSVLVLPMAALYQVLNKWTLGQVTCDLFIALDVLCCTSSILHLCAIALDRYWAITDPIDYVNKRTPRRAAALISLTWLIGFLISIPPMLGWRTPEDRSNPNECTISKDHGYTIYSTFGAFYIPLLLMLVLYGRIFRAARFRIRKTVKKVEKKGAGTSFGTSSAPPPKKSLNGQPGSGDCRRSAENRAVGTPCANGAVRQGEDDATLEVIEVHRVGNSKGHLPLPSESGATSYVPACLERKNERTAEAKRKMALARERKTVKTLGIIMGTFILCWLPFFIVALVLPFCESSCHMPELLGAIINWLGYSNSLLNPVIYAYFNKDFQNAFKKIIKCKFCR
The experiment in a line: competitive radioligand binding ([3H]-8-OH-DPAT displacement), mouse frontal cortex membranes.

Assay [3] addresses T1, 5-HT1B receptor. The experiment in a line: competitive radioligand binding, mouse frontal cortex membranes.

T1 sequence (P28334 whole entry): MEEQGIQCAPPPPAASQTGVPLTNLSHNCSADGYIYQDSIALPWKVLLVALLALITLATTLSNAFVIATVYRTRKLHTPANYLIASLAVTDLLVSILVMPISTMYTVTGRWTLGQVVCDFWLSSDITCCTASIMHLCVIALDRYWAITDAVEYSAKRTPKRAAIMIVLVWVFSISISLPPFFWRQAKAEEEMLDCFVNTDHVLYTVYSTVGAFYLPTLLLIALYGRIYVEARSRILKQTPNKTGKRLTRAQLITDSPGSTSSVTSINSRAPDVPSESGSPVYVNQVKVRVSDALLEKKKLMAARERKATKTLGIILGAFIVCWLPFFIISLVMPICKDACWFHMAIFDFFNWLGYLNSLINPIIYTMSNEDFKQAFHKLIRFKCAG

For the compound `COc1ccc(NC(=O)c2ccc(-c3ccc(-c4noc(C)n4)cc3C)cc2)cc1N1CCN(C)CC1` [GR-127935], the Ki – broadly, the equilibrium dissociation constant of an inhibitor or competing ligand from its target – in assay [1] was determined as 1.29 nM.
Consider `COc1cccc(/C=N/N(C(=O)C(F)(F)F)c2ccc(C)cc2C)c1` [J147], for which the inhibition constant (Ki) came out at 0.42 nM in assay [2] and 612 nM in assay [3].
